Test results: patent publication US5023256A, “Pharmacologically active aminoimidazopyridines” (Dompe Farmaceutici S.p.A., priority 1989, dated 1991)

What was measured:
[1] = Evaluation of the Lethal Dose50 (LD50), acute toxicity; conditions: in vivo, ip; mouse, 14 days observation, probit method
Experimental: Evaluation of the Lethal Dose50 (LD50)
The tests were carried out on Swiss Nos (Nossan; Correzzana, Milano) mice weighing 18-20 g each. The animals, divided into groups of 10 animals each (5M+5F), were on an empty stomach for 18 hrs, with water ad libitum, and kept in cages with a grid floor. The compounds (I) were dissolved in water or suspended in 0.5% carboxymethylcellulose and intraperitoneally administered to the animals (10 ml/kg). The number of mice which died within the following 6 hours was recorded. Upon the expiry of the sixth hour, the animals were allowed to eat up to the end of the experimentation which lasted 14 days. During this period all the toxic symptoms and the mortality occurring were noted.
The animals which died during the test period and those which were sacrificed at the end of the same, underwent autopsy for a macroscopic examination of their main organs. The experimental data were statistically compared with the X^2 method and LD50 was extrapolated by the `probit` method.

[2] = test system: sleeping time induced by pentobarbital; experiment: Effect on the Sleeping Time Induced by Pentobarbital; assay type: in vivo, male mice Swiss-Nos; conditions: mouse, 25 mg/kg i.p. 30 minutes before 40 mg/kg i.p. sodium pentobarbital; increase vs control group
Experimental: Effect on the Sleeping Time Induced by Pentobarbital The tests were carried out on male mice Swiss-Nos (Nossan, Correzzana, Milano) weighing 20-24 g, on an empty stomach for 18 hrs, according to the method described by R. Turner (Screening Methods in Pharmacology, Acad. Press, pg 70, 1965). […] The narcosis start was considered from the moment when the animal, lying on its back, lost its straightening reflex. The narcosis end was considered from the moment when the animal recovered such reflex. The carrier or the compounds under examination were administered by intraperitoneal route at the dose 25 mg/kg, 30 minutes before the pentobarbital administration. The resulting data are expressed as sleeping time increase percent in the treated animal group in comparison to the control animal group.

[3] = test system: histamine-induced mortality; experiment: Effect on the Mortality Induced by Histamine; assay type: in vivo, male albino guinea pigs (Dunkin-Hartley); conditions: Cavia porcellus, po; guinea pig, p.o. 60 minutes before 1,25 mg/kg i.v. histamine dihydrochloride; amount inhibiting 50% of mortality
Experimental: Effect on the Mortality Induced by Histamine
The method described by Romer D. et al. (Med. Welt, 17, 791, 1966) was followed and the tests were carried out on male albino guinea pigs (Dunkin-Hartley), weighing 350-450 g, which were kept in cages with a grid floor, on an empty stomach for 24 hrs with water ad libitum.
The compounds under examination were dissolved in 0.5% carboxy methylcellulose and orally administered to the animals 60 minutes before that the same animals were intravenously treated with 1,25 mg/kg of histamine dihydrochloride dissolved in saline solution. In the control animals, treated with carboxymethyl cellulose, the histamine dihydrochloride solution, intravenously administered, induced a 100% mortality.
It was evaluated ED50 which corresponds to the amount of the compound able to inhibit 50% of the mortality induced by histamine: the estimation of ED50 was carried out applying the `probit` method (Finney D. J., Statistical methods in biological assay, pg 512, 1957).

| Structure (SMILES) | LD50 at 336 h [1] [mg/kg] | Increase of sleeping time induced by pentobarbital [2] [%] | ED50 [3] [mg/kg] |
| --- | --- | --- | --- |
| CN1CCN(c2nc3cccnc3n2Cc2ccccc2)CC1.O=C(O)/C=C/C(=O)O [Example 1, 3-Benzyl-2-(4-methylpiperazin-1-yl)-3H-imidazo[4,5-b]pyridine fumarate] | > 100 | 183 | 0.033 |
| CN(C)CCNc1nc2cccnc2n1Cc1ccccc1.Cl.Cl [Example 2, 3-Benzyl-2-(2-dimethylaminoethylamino)-3H-imidazo[4,5-b]pyridine dihydrochloride] | > 100 | 76 |  |
| CC(C)(C)c1ccc(C(O)CCCN2CCC(C(O)(c3ccccc3)c3ccccc3)CC2)cc1 (stereo not drawn) [Terfenadine, reference compound] |  | 44 |  |
